Test results reported in PubChem BioAssay AID248 (DTP/NCI, 2004).
Several values for one entry are separate records, joined by “and”; a condition that tells them apart may be missing. Equal values may be shown once. Inconclusive results and toxic doses are left out. Rule as the data show it: active = T/C of 150% or more; inactive = T/C below 125%.

Test system: L1210 leukemia ip in BDF1 mice, survival T/C
Experiment: NCI In Vivo Anticancer Drug Screen. Data for tumor model L1210 Leukemia (intraperitoneal) in B6D2F1 (BDF1) mice
Conditions: endpoint: mean survival time, higher = longer survival
Outline: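 Read-out is survival time, reported as the treated-group measurement over the vehicle-control measurement.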

[1] = dose: 100.0 mg/kg/injection, schedule: Q04DX003 (ip), vehicle: Klucel (hydroxypropylcellulose) (HPC)
[2] = dose: 200.0 mg/kg/injection, schedule: Q04DX003 (ip), vehicle: Klucel (hydroxypropylcellulose) (HPC)
[3] = dose: 400.0 mg/kg/injection, schedule: Q04DX003 (ip), vehicle: Klucel (hydroxypropylcellulose) (HPC)
[4] = dose: 100.0 mg/kg/injection, schedule: Q01DX009 (ip), vehicle: Klucel (hydroxypropylcellulose) (HPC)
[5] = dose: 200.0 mg/kg/injection, schedule: Q01DX009 (ip), vehicle: Klucel (hydroxypropylcellulose) (HPC)
[6] = dose: 25.0 mg/kg/injection, schedule: Q01DX009 (ip), vehicle: Klucel (hydroxypropylcellulose) (HPC)
[7] = dose: 12.5 mg/kg/injection, schedule: Q01DX009 (ip), vehicle: saline with Tween-80
[8] = dose: 100.0 mg/kg/injection, schedule: Q01DX001 (ip), vehicle: saline
[9] = dose: 200.0 mg/kg/injection, schedule: Q01DX001 (ip), vehicle: saline
[10] = dose: 400.0 mg/kg/injection, schedule: Q01DX001 (ip), vehicle: saline
[11] = dose: 50.0 mg/kg/injection, schedule: Q01DX001 (ip), vehicle: saline

Measured: T/C

CC1CN1P(=O)(OCCC#N)N1CC1C (stereo not given)
inactive: dose: 50.0 mg/kg/injection, schedule: Q01DX009 (ip), vehicle: saline 99 % of control and 111 % of control | dose: 100.0 mg/kg/injection, schedule: Q01DX009 (ip), vehicle: saline 110 % of control and 113 % of control | dose: 132.0 mg/kg/injection, schedule: Q04DX003 (ip), vehicle: acetone 109 % of control | dose: 200.0 mg/kg/injection, schedule: Q01DX009 (ip), vehicle: saline 108 % of control | dose: 400.0 mg/kg/injection, schedule: Q01DX009 (ip), vehicle: saline 96 % of control

CCOC(=O)Cn1c(=O)c2ccccc2c2cc([N+](=O)[O-])ccc21
inactive: [1] 95 % of control | [2] 97 % of control | [3] 86 % of control

CCCC(C)OP(=O)(OCC)OC(C)CC (stereo not given)
inactive: [4] 100 % of control | [5] 89 % of control

CC(C)=CCNc1ncnc2c1c(C#N)cn2C1OC(CO)C(O)C1O (stereo not given)
inactive: dose: 0.78 mg/kg/injection, schedule: Q01DX009 (ip), vehicle: saline 95 % of control | dose: 1.56 mg/kg/injection, schedule: Q01DX005 (ip), vehicle: saline 106 % of control | dose: 1.56 mg/kg/injection, schedule: Q01DX009 (ip), vehicle: saline 95 % of control | dose: 3.12 mg/kg/injection, schedule: Q01DX009 (ip), vehicle: saline 97 % of control

CC[CH](C)[Hg][c]1cccc2ccccc12 (stereo not given)
inactive: [6] 96 % of control | dose: 50.0 mg/kg/injection, schedule: Q01DX009 (ip), vehicle: Klucel (hydroxypropylcellulose) (HPC) 97 % of control | [4] 97 % of control and 100 % of control | [1] 100 % of control | [2] 97 % of control | [3] 96 % of control

CCOC1C=CC(OC(C)=O)C(COC(C)=O)O1 (stereo not given)
inactive: [4] 108 % of control | [1] 96 % of control | [5] 100 % of control | [2] 96 % of control | dose: 400.0 mg/kg/injection, schedule: Q01DX009 (ip), vehicle: Klucel (hydroxypropylcellulose) (HPC) 104 % of control | [3] 94 % of control

O=C(O)C(O)C(O)C(O)C(O)C(O)CO.[Fe] (stereo not given)
inactive: dose: 75.0 mg/kg/injection, schedule: Q01DX001 (ip), vehicle: saline 95 % of control

COc1cc(OC)c(Br)cc1C
inactive: dose: 100.0 mg/kg/injection, schedule: Q01DX009 (ip), vehicle: saline with Tween-80 100 % of control | dose: 100.0 mg/kg/injection, schedule: Q04DX003 (ip), vehicle: saline with Tween-80 100 % of control | dose: 200.0 mg/kg/injection, schedule: Q01DX009 (ip), vehicle: saline with Tween-80 101 % of control | dose: 200.0 mg/kg/injection, schedule: Q04DX003 (ip), vehicle: saline with Tween-80 96 % of control | dose: 400.0 mg/kg/injection, schedule: Q01DX009 (ip), vehicle: saline with Tween-80 102 % of control | dose: 400.0 mg/kg/injection, schedule: Q04DX003 (ip), vehicle: saline with Tween-80 104 % of control

O=[N+]([O-])/C=C\c1cc2c3c(c1)CCCN3CCC2
inactive: dose: 3.13 mg/kg/injection, schedule: Q01DX001 (ip), vehicle: saline with Tween-80 95 % of control | dose: 3.13 mg/kg/injection, schedule: Q04DX003 (ip), vehicle: saline with Tween-80 98 % of control | dose: 6.25 mg/kg/injection, schedule: Q01DX001 (ip), vehicle: saline with Tween-80 94 % of control | dose: 6.25 mg/kg/injection, schedule: Q04DX003 (ip), vehicle: saline with Tween-80 93 % of control | dose: 12.5 mg/kg/injection, schedule: Q01DX001 (ip), vehicle: saline with Tween-80 95 % of control and 93 % of control | [7] 100 % of control | dose: 12.5 mg/kg/injection, schedule: Q04DX003 (ip), vehicle: saline with Tween-80 97 % of control | dose: 25.0 mg/kg/injection, schedule: Q01DX001 (ip), vehicle: saline with Tween-80 93 % of control | dose: 25.0 mg/kg/injection, schedule: Q01DX009 (ip), vehicle: saline with Tween-80 102 % of control | dose: 50.0 mg/kg/injection, schedule: Q01DX001 (ip), vehicle: saline with Tween-80 97 % of control | dose: 50.0 mg/kg/injection, schedule: Q01DX009 (ip), vehicle: saline with Tween-80 97 % of control

CC(=O)Nc1ccc2c(Nc3ccc(NS(C)(=O)=O)cc3)c3ccccc3nc2c1
inactive: dose: 18.0 mg/kg/injection, schedule: Q01DX009 (ip), vehicle: saline with Tween-80 93 % of control | [6] 93 % of control
active: dose: 0.8 mg/kg/injection, schedule: Q01DX009 (ip), vehicle: Klucel (hydroxypropylcellulose) (HPC) 151 % of control | dose: 1.5 mg/kg/injection, schedule: Q01DX009 (sc), vehicle: saline 156 % of control | dose: 1.6 mg/kg/injection, schedule: Q01DX009 (ip), vehicle: Klucel (hydroxypropylcellulose) (HPC) 159 % of control | dose: 3.1 mg/kg/injection, schedule: Q01DX009 (ip), vehicle: Klucel (hydroxypropylcellulose) (HPC) 180 % of control | dose: 5.4 mg/kg/injection, schedule: Q01DX009 (ip), vehicle: saline with Tween-80 228 % of control | dose: 6.25 mg/kg/injection, schedule: Q01DX009 (ip), vehicle: Klucel (hydroxypropylcellulose) (HPC) 281 % of control | dose: 8.0 mg/kg/injection, schedule: Q01DX009 (ip), vehicle: saline with Tween-80 176 % of control | dose: 12.0 mg/kg/injection, schedule: Q01DX009 (ip), vehicle: saline with Tween-80 171 % of control | [7] 165 % of control | dose: 12.5 mg/kg/injection, schedule: Q01DX009 (sc), vehicle: saline 152 % of control

O=C(CC(O)(C(F)(F)F)C(F)(F)F)c1ccc(C(=O)CC(O)(C(F)(F)F)C(F)(F)F)cc1
inactive: dose: 50.0 mg/kg/injection, schedule: Q01DX009 (ip), vehicle: other 108 % of control | dose: 100.0 mg/kg/injection, schedule: Q01DX009 (ip), vehicle: other 97 % of control

O=C(OC(=Nc1ccc([N+](=O)[O-])cc1)c1cc(N2CCCC2)ccn1)c1ccc(-c2ccccc2)cc1
inactive: [8] 98 % of control | [9] 97 % of control | [10] 92 % of control

CCOC(=O)c1ccc(NCC(C)(C)N)cc1
inactive: dose: 100.0 mg/kg/injection, schedule: Q04DX003 (ip), vehicle: saline 97 % of control

CCCCCc1c(CCCC)c(=O)[nH]c2ccccc12
inactive: [8] 97 % of control | [9] 98 % of control | [10] 90 % of control

O=C(O)C(=O)O.[Co+3].[NH-]C(Cc1ccccc1)C(=O)[O-].[NH-]CCN(CC[NH-])CC[NH-] (stereo not given)
inactive: [11] 110 % of control | [8] 105 % of control | [9] 104 % of control | [10] 102 % of control

O=S(=O)(Nc1ccccc1)c1ccccc1CC(O)(c1ccccc1)c1ccccc1
inactive: dose: 100.0 mg/kg/injection, schedule: Q01DX001 (ip), vehicle: steriod suspending solution 95 % of control | dose: 200.0 mg/kg/injection, schedule: Q01DX001 (ip), vehicle: steriod suspending solution 93 % of control | dose: 400.0 mg/kg/injection, schedule: Q01DX001 (ip), vehicle: steriod suspending solution 87 % of control

CC(=O)OC1=C(Cl)C(=O)c2ccccc2C1=O
inactive: dose: 75.0 mg/kg/injection, schedule: Q01DX001 (ip), vehicle: other 89 % of control | dose: 150.0 mg/kg/injection, schedule: Q01DX001 (ip), vehicle: other 94 % of control

CC(=O)n1c(O)c(N=NC(=N)N[N+](=O)[O-])c2ccccc21
inactive: dose: 100.0 mg/kg/injection, schedule: Q01DX001 (ip), vehicle: saline with Tween-80 97 % of control | dose: 132.0 mg/kg/injection, schedule: Q01DX001 (ip), vehicle: saline with Tween-80 101 % of control | dose: 200.0 mg/kg/injection, schedule: Q01DX001 (ip), vehicle: saline with Tween-80 97 % of control | dose: 300.0 mg/kg/injection, schedule: Q01DX001 (ip), vehicle: saline with Tween-80 106 % of control | dose: 400.0 mg/kg/injection, schedule: Q01DX001 (ip), vehicle: saline with Tween-80 101 % of control

CCCCCCCCCCCC[n+]1ccc(C(N)=O)cc1
inactive: dose: 12.5 mg/kg/injection, schedule: Q01DX001 (ip), vehicle: saline 91 % of control | dose: 12.5 mg/kg/injection, schedule: Q04DX003 (ip), vehicle: saline 96 % of control | dose: 25.0 mg/kg/injection, schedule: Q01DX001 (ip), vehicle: saline 100 % of control | dose: 25.0 mg/kg/injection, schedule: Q04DX003 (ip), vehicle: saline 87 % of control | [11] 86 % of control | dose: 50.0 mg/kg/injection, schedule: Q04DX003 (ip), vehicle: saline 94 % of control
